Results reported in patent US7199130B2, “Substituted 5,6,6a, 11b-tetrahydro-7-oxa-5-aza-benzo[c]fluorene-6-carboxylic acid compounds as NMDA-antagonists” (Gruenenthal GmbH, priority 2001, dated 2007).

Tests used:
[1] = target: T1, glycine-binding site of the NMDA receptor channel (Rattus norvegicus, UniProt P35439); assay: Receptor binding (glycine-binding site of the NMDA receptor channel), displacement of (3H)-MDL 105.519
T1 construct: from tissue; host or cells: rat brain cortex and hippocampus membrane homogenate (male Wistar)
Protocol: Receptor Binding (Glycine-Binding Site of the NMDA Receptor Channel)
The investigation for determining the affinity of the compounds according to the invention of the formula I towards the glycine-binding site of the NMDA receptor channel was performed on brain membrane homogenates (homogenate of the cortex and hippocampus area from male rat brain, Wistar strain) [B. M. Baron, B. W. Siegel, B. L. Harrison, R. S. Gross, C. Hawes and P. Towers, Journal of Pharmacology and Experimental Therapeutics, vol. 279, p. 62, 1996].
To this end, the cortex and hippocampus were dissected out of freshly harvested rat brains and homogenized with ice cooling in 5 mmol/l of TRIS-acetate buffer, 0.32 mol/l of sucrose, pH 7.4 (10 ml/g fresh weight) using a Potter homogenizer (Braun/Melsungen, 10 piston strokes at 500 rpm) and then centrifuged for 10 minutes at 1,000 g and 4° C. […] This membrane homogenate was used in the receptor binding test in a quantity of 100 μl per 1 ml batch (0.1 mg of protein/ml in the final batch). […] The level of non-specific binding was determined in the presence of 1 mmol/l of glycine.
In further batches, the compounds according to the invention were added in concentration series and the displacement of the radioactive ligand from its specific binding at the glycine-binding site of the NMDA receptor channel was determined. […]

[2] = test system: formaldehyde-induced nociception; assay: Formaldehyde test, rat (second phase); assay type: in vivo; details: iv, male Sprague-Dawley rats, second (late) phase of formaldehyde test, pain rate vs vehicle control
Protocol: The investigations to determine the antinociceptive action of the compounds according to the invention of the formula I were carried by the formaldehyde test on male rats (Sprague-Dawley, 150–170 g). In the formaldehyde test, a distinction is drawn between the first (early) phase (0–15 min after formaldehyde injection) and the second (later) phase (15–60 min after formaldehyde injection) (D. Dubuisson, S. G. Dennis, Pain 4, 161–174 (1977)). […]
A nociceptive reaction was induced in the freely mobile test animals by a single, subcutaneous formaldehyde injection (50 μl, 5%) into the dorsal side of the rear hind paw, the reaction being classed according to one of the following behavioral parameters: lifting and holding up the affected paw (score 1), shaking or twitching (score 2), licking and biting (score 3). The differential behavior induced by the formaldehyde injection was recorded by observing the animals in the late phase of the formaldehyde test and assigned a variable weighting in the evaluation. Normal behavior, in which the animal places an even load on all four paws, was recorded as a score of 0. […] The nociceptive behavior was calculated as a “pain rate” (PR). […] On the basis of the calculated PR values, the effect of the substance was determined as a percentage change relative to the control. […]

Glycine-binding site of the NMDA receptor channel Displacement ([1]; 10 μmol/l of substance, displacement of (3H)-MDL 105.519 from specific binding, rat brain membranes): 100%
Ki ([1]; rat cortex and hippocampus membrane homogenate, ligand 1 nmol/l (3H)-MDL 105.519, converted from IC50 by Cheng-Prussoff, mean of three independent tests): 53 nM
Structure (SMILES): O=C(O)C1Nc2cc(Cl)cc(Cl)c2C2c3ccccc3OC12 (stereo not drawn) [Example 1, 1,3-Dichloro-5,6,6a,11b-tetrahydro-7-oxa-5-aza-benzo [c]fluorene-6-carboxylic acid]
ED50 [2]: 7.27 mg/kg
